According to patent US10093630B2, “Pyrazole compounds and methods of making and using same” (ABIDE THERAPEUTICS, INC., priority 2014, dated 2018):

How the values were obtained:
Test in all cases: In vitro competitive activity-based protein profiling (gel-based, FP-Rh or HT-01 probe)
Type in all cases: biochemical
[1] = molecular target: T1, ABHD6 (Mus musculus, UniProt Q8R2Y0); settings: for inhibition at 1 µM: 1 μM inhibitor, read-out: % Inhibition at 1 μM, C = ABHD6; for IC50: mouse brain membrane fraction or cell lysates, 30 min preincubation at 37° C., read-out: Mouse (IC50 value, nM) ABHD6; for inhibition at 10 µM: 10 μM inhibitor, read-out: % Inhibition at 10 μM, C = ABHD6
T1 construct: Proteomes (mouse brain membrane fraction or cell lysates); from tissue; host or cells: mouse brain membrane fraction (or cell lysates, not specified)
T1 sequence (Q8R2Y0 1-336): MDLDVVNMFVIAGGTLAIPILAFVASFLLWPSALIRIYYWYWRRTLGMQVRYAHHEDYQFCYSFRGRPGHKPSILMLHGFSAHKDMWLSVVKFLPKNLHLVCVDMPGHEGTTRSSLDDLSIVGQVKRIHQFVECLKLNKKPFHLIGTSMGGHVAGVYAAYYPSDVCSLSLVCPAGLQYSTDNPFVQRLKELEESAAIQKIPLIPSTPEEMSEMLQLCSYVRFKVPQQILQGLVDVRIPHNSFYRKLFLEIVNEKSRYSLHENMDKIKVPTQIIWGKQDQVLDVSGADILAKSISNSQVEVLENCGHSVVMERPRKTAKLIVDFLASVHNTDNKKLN
Method in brief: (§1)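 Mouse brain membrane or cell lysate proteomes (1.0 mg/mL) preincubated with inhibitors 30 min at 37° C, then labelled with FP-Rh or HT-01 for 30 min at 37° C. After SDS-PAGE, activity quantified from fluorescent band intensity.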

[2] = molecular target: T2, PLA2G7 (Mus musculus, UniProt Q60963); settings: for inhibition at 1 µM: 1 μM inhibitor, read-out: % Inhibition at 1 μM, D = PLA2G7; for IC50: mouse brain membrane fraction or cell lysates, 30 min preincubation at 37° C.; for inhibition at 10 µM: 10 μM inhibitor, read-out: % Inhibition at 10 μM, D = PLA2G7
T2 construct: Proteomes (mouse brain membrane fraction or cell lysates); from tissue; host or cells: mouse brain membrane fraction (or cell lysates, not specified)
T2 sequence (Q60963 22-440): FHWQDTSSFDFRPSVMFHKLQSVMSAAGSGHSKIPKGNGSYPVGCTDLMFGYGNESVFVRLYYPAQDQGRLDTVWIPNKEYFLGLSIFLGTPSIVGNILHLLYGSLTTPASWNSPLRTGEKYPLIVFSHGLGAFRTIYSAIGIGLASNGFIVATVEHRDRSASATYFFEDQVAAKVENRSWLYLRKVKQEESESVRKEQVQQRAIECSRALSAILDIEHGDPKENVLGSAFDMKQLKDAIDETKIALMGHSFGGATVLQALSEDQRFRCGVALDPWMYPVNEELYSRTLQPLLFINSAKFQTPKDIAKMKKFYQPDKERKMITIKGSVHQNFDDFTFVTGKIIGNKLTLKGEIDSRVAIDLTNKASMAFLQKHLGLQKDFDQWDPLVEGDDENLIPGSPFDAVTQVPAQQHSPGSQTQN
Method in brief: as §1

[3] = molecular target: T3, MAGL (Mus musculus, UniProt O35678); settings: for inhibition at 1 µM: 1 μM inhibitor; for IC50: mouse brain membrane fraction or cell lysates, 30 min preincubation at 37° C., read-out: Mouse (IC50 value, nM) MAGL; for inhibition at 10 µM: 10 μM inhibitor
T3 construct: Proteomes (mouse brain membrane fraction or cell lysates); from tissue; host or cells: mouse brain membrane fraction (or cell lysates, not specified)
T3 sequence (O35678 1-303): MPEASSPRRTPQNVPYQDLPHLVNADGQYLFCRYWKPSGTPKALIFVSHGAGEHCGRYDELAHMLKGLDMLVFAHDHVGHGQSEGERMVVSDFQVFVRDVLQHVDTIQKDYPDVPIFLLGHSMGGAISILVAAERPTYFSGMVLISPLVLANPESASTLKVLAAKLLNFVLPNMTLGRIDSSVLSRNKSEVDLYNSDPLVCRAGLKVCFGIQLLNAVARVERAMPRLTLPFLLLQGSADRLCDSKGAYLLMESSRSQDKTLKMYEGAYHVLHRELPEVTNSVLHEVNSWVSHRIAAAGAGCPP
Method in brief: as §1

[4] = molecular target: T4, FAAH (Mus musculus, UniProt O08914); settings: for inhibition at 1 µM: 1 μM inhibitor, read-out: % Inhibition at 1 μM, B = FAAH; for IC50: mouse brain membrane fraction or cell lysates, 30 min preincubation at 37° C., read-out: Mouse (IC50 value, nM) FAAH; for inhibition at 10 µM: 10 μM inhibitor, read-out: % Inhibition at 10 μM, B = FAAH
T4 construct: Proteomes (mouse brain membrane fraction or cell lysates); from tissue; host or cells: mouse brain membrane fraction (or cell lysates, not specified)
T4 sequence (O08914 1-579): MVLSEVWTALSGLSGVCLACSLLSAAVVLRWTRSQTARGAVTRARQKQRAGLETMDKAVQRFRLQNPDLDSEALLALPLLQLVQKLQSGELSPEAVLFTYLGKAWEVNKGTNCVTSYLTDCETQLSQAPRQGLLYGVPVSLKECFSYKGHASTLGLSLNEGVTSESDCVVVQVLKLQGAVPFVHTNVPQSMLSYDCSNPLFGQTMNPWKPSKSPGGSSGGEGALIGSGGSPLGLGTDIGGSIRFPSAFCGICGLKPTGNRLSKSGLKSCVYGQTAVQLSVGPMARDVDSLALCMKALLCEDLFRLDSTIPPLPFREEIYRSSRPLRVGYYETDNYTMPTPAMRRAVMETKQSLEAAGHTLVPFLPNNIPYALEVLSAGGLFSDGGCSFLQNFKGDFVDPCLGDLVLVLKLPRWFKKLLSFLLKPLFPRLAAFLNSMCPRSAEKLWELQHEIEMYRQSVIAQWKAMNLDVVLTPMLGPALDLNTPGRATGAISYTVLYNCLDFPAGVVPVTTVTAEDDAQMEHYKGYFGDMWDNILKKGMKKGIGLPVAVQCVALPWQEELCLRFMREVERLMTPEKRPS
Method in brief: as §1

| inhibition at 1 µM [1] [%] | IC50 [1] [nM] | inhibition at 1 µM [2] [%] | IC50 [2] [nM] | inhibition at 1 µM [3] [%] | IC50 [3] [nM] | inhibition at 1 µM [4] [%] | IC50 [4] [nM] | inhibition at 10 µM [1] [%] | inhibition at 10 µM [2] [%] | inhibition at 10 µM [3] [%] | inhibition at 10 µM [4] [%] | Structure (SMILES) |
| --- | --- | --- | --- | --- | --- | --- | --- | --- | --- | --- | --- | --- |
| > 75 | < 100 | < 25 | > 1000 | > 75 | < 100 | > 75 | < 100 |  |  |  |  | O=C(N1CCN(Cc2ccc(Cl)cc2)CC1)n1cc(Cl)cn1 [Example 226, (4-Chloro-1H-pyrazol-1-yl)(4-(4-chlorobenzyl)piperazin-1-yl)methanone] |
| > 75 |  | > 75 |  | > 75 |  | > 75 |  | > 75 | > 75 | > 75 | > 75 | O=C(N1CCN(c2ccc(Cl)cc2)CC1)n1cc(C(F)(F)F)cn1 [Example 229, (4-(4-Chlorophenyl)piperazin-1-yl)(4-(trifluoromethyl)-1H-pyrazol-1-yl)methanone] |
| > 75 |  | > 75 |  | > 75 |  | > 75 |  | > 75 | > 75 | > 75 | > 75 | Cc1ccccc1N1CCN(C(=O)n2cc(C(F)(F)F)cn2)CC1 [Example 230, (4-o-Tolylpiperazin-1-yl)(4-(trifluoromethyl)-1H-pyrazol-1-yl)methanone] |
| > 75 | < 100 | > 75 | < 100 | > 75 | < 100 | > 75 | < 100 | > 75 | > 75 | > 75 | > 75 | COc1ccc(N2CCN(C(=O)n3cc(C(F)(F)F)cn3)CC2)cc1 [Example 235, (4-(4-Methoxyphenyl)piperazin-1-yl)(4-(trifluoromethyl)-1H-pyrazol-1-yl)methanone] |
| > 75 |  | > 75 |  | > 75 |  | 25 to 75 |  | > 75 | > 75 | > 75 | > 75 | O=C(N1CCN(c2ccccc2N2CCOCC2)CC1)n1cc(C(F)(F)F)cn1 [Example 236, (4-(2-Morpholinophenyl)piperazin-1-yl)(4-(trifluoromethyl)-1H-pyrazol-1-yl)methanone] |

Continued, compound first:

| Structure (SMILES) | inhibition at 1 µM [1] [%] | IC50 [1] [nM] | inhibition at 1 µM [2] [%] | IC50 [2] [nM] | inhibition at 1 µM [3] [%] | IC50 [3] [nM] | inhibition at 1 µM [4] [%] | IC50 [4] [nM] | inhibition at 10 µM [1] [%] | inhibition at 10 µM [2] [%] | inhibition at 10 µM [3] [%] | inhibition at 10 µM [4] [%] |
| --- | --- | --- | --- | --- | --- | --- | --- | --- | --- | --- | --- | --- |
| O=C(N1CCN(Cc2cccc(Cl)c2)CC1)n1cc(Cl)cn1 [Example 225, (4-Chloro-1H-pyrazol-1-yl)(4-(3-chlorobenzyl)piperazin-1-yl)methanone] | > 75 | 100 to 1000 | < 25 | > 1000 | > 75 | < 100 | > 75 | < 100 |  |  |  |  |
| O=C(N1CCN(c2ccccc2Cl)CC1)n1cc(C(F)(F)F)cn1 [Example 227, (4-(2-Chlorophenyl)piperazin-1-yl)(4-(trifluoromethyl)-1H-pyrazol-1-yl)methanone] | > 75 | < 100 | > 75 | < 100 | > 75 | < 100 | > 75 | < 100 | > 75 | > 75 | > 75 | > 75 |
| O=C(N1CCN(c2cccc(Cl)c2)CC1)n1cc(C(F)(F)F)cn1 [Example 228, (4-(3-Chlorophenyl)piperazin-1-yl)(4-(trifluoromethyl)-1H-pyrazol-1-yl)methanone] | > 75 |  | > 75 |  | > 75 |  | > 75 |  | > 75 | > 75 | > 75 | > 75 |
| Cc1cccc(N2CCN(C(=O)n3cc(C(F)(F)F)cn3)CC2)c1 [Example 231, (4-m-Tolylpiperazin-1-yl)(4-(trifluoromethyl)-1H-pyrazol-1-yl)methanone] | > 75 |  | > 75 |  | > 75 |  | > 75 |  | > 75 | > 75 | > 75 | > 75 |
| Cc1ccc(N2CCN(C(=O)n3cc(C(F)(F)F)cn3)CC2)cc1 [Example 232, (4-p-Tolylpiperazin-1-yl)(4-(trifluoromethyl)-1H-pyrazol-1-yl)methanone] | > 75 |  | > 75 |  | > 75 |  | > 75 |  | > 75 | > 75 | > 75 | > 75 |
| COc1ccccc1N1CCN(C(=O)n2cc(C(F)(F)F)cn2)CC1 [Example 233, (4-(2-Methoxyphenyl)piperazin-1-yl)(4-(trifluoromethyl)-1H-pyrazol-1-yl)methanone] | > 75 | < 100 | > 75 | < 100 | > 75 | < 100 | > 75 | < 100 | > 75 | > 75 | > 75 | > 75 |
| COc1cccc(N2CCN(C(=O)n3cc(C(F)(F)F)cn3)CC2)c1 [Example 234, (4-(3-Methoxyphenyl)piperazin-1-yl)(4-(trifluoromethyl)-1H-pyrazol-1-yl)methanone] | > 75 | < 100 | > 75 | < 100 | > 75 | < 100 | > 75 | < 100 | > 75 | > 75 | > 75 | > 75 |
| O=C(N1CCN(c2cccc(N3CCOCC3)c2)CC1)n1cc(C(F)(F)F)cn1 [Example 237, (4-(3-Morpholinophenyl)piperazin-1-yl)(4-(trifluoromethyl)-1H-pyrazol-1-yl)methanone] | > 75 |  | > 75 |  | > 75 |  | > 75 |  | > 75 | > 75 | > 75 | > 75 |
